Series [1] relates to normotensive dogs. As to the kind of experiment: Intraocular pressure and ocular surface hyperemia in normotensive dogs. More on the design: scale not given here. The format is in vivo, dog. From the text: U.S. Pat. No. 7,091,231 describes the methods used for these in vivo tests.
Series [2] concerns the target T1, EP2 (Homo sapiens, UniProt P43116). As to the kind of experiment: cAMP assay, EP2. The format is cell-based. Further details: expressed in transfected cells; host or cells: HEK-EBNA. As to conditions: HEK-EBNA cells expressing EP2. Here is the method:
A 384-well drug plate was prepared to contain 6 test compounds, PGE2 and cAMP in 16 serial dilutions in triplicate, using a Biomek station. HEK-EBNA cells expressing a target PG receptor subtype (EP2 or EP4) were suspended in a stimulation buffer (HBSS, 0.1% BSA, 0.5 mM IBMX and 5 mM HEPES, pH 7.4) in a density of 10^4 cells/5 μl. The reaction was initiated by mixing 5 μL drug dilutions with 5 μl of HEK-EBNA cells in a well, carried out for 30 min at room temperature, and followed by the addition of 5 μl anti-cAMP acceptor beads in the control buffer with Tween-20 (25 mM NaCl, 0.03% Tween-20, 5 mM HEPES, pH7.4). After 30 min in the dark at room temperature, the mixtures were incubated with 15 μl biotinylated-cAMP/strepavidin donor beads in Lysis/Detection buffer (0.1% BSA, 0.3% Tween-20 and 5 mM HEPES, pH7.4) for 45 min at the room temperature. Fluorescence changes were read using a Fusion-alpha HT microplate reader.
In general terms: cAMP levels reflect the balance of adenylyl cyclase and phosphodiesterase activity.

Series [3] deals with T2, hTP (Homo sapiens, UniProt P21731).
T2 construct: expressed in transfected cells; host or cells: HEK-293(EBNA)
T2 sequence (P21731 1-343): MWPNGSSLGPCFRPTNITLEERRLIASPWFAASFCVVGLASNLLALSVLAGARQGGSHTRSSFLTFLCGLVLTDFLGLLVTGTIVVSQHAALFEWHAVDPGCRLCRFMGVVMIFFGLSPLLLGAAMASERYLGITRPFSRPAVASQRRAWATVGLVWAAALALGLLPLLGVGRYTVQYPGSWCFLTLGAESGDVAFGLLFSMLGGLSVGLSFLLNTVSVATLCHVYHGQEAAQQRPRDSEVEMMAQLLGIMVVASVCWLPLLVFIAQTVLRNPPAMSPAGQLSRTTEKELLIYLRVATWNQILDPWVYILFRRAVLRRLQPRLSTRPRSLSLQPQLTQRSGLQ
As to the kind of experiment: FLIPR calcium signal, hTP. The format is cell-based. As to conditions: read-out: Other Receptors (EC50 in nM) hTP. Here is the method: (§1) HEK-293(EBNA) cells, stably expressing one type or subtype of recombinant human prostaglandin receptors (prostaglandin receptors expressed: hDP/Gqs5; hEP1; hEP2/Gqs5; hEP3A/Gqi5; hEP4/Gqs5; hFP; hIP; hTP), were cultured in 100 mm culture dishes in high-glucose DMEM medium containing 10% fetal bovine serum, 2 mM l-glutamine, 250 μg/ml geneticin (G418) and 200 μg/ml hygromycin B as selection markers, and 100 units/ml penicillin G, 100 μg/ml streptomycin and 0.25 μg/ml amphotericin B.
(§2) Cells were seeded at a density of 5×10^4 cells per well in Biocoat® Poly-D-lysine-coated black-wall, clear-bottom 96-well plates (Becton-Dickinson) and allowed to attach overnight in an incubator at 37° C. Cells were then washed two times with HBSS-HEPES buffer (Hanks Balanced Salt Solution without bicarbonate and phenol red, 20 mM HEPES, pH 7.4) using a Denley Cellwash plate washer (Labsystems). After 45 minutes of dye-loading in the dark, using the calcium-sensitive dye Fluo-4 […] at a final concentration of 2 μM, plates were washed four times with HBSS-HEPES buffer to remove excess dye leaving 100 μl in each well. Plates were re-equilibrated to 37° C. for a few minutes.
(§3) Cells were excited with an Argon laser at 488 nm, and emission was measured through a 510-570 nm bandwidth emission filter (FLIPR™, Molecular Devices, Sunnyvale, Calif.). Drug solution was added in a 50 μl volume to each well to give the desired final concentration. The peak increase in fluorescence intensity was recorded for each well. On each plate, four wells each served as negative (HBSS-HEPES buffer) and positive controls (standard agonists: BW245C (hDP); PGE2 (hEP1; hEP2/Gqs5; hEP3A/Gqi5; hEP4/Gqs5); PGF2α (hFP); carbacyclin (hIP); U-46619 (hTP), depending on receptor). The peak fluorescence change in each drug-containing well was then expressed relative to the controls.
Compounds were tested in a high-throughput (HTS) or concentration-response (CoRe) format. […]

Series [4] addresses T3, hEP2/Gqs5 (Homo sapiens, UniProt P43116).
T3 construct: expressed in transfected cells; host or cells: HEK-293(EBNA)
Description: FLIPR calcium signal, EP2. As to conditions: HEK-293(EBNA) cells. The format is cell-based. Here is the method:
as §1, §2, §3
(§4) Compounds were tested in a high-throughput (HTS) or concentration-response (CoRe) format. In the HTS format, forty-four compounds per plate were examined in duplicates at a concentration of 10^−5 M. To generate concentration-response curves, four compounds per plate were tested in duplicates in a concentration range between 10^−5 and 10^−11 M. The duplicate values were averaged. In either, HTS or CoRe format each compound was tested on at least 3 separate plates using cells from different passages to give an n≧3.

Series [5] concerns the target T1, EP2. As to the kind of experiment: Competition binding [3H]PGE2, EP2 Ki. Further details: expressed in transfected cells; host or cells: HEK 293. As to conditions: [3H]PGE2 competition, HEK 293 cells expressing human EP2. Here is the method: Competition binding experiments were performed in a medium containing Hank's balanced salt solution, Hepes 20 mM, pH 7.3, membranes (˜60 μg protein) or 2×10^5 cells from HEK 293 cells stably expressing human EP2 receptors, [^3H]PGE2 (10 nM) and various concentrations of test compounds in a total volume of 300 μl. Reaction mixtures were incubated at 23° C. for 60 min, and were filtered over Whatman GF/B filters under vacuum. Filters were washed three times with 5 ml ice-cold buffer containing 50 mM Tris/HCl (pH 7.3). Non-specific binding was estimated in the presence of excess unlabeled PGE2 (10 μM). Binding data fitted to the binding model for a single class of binding sites, using nonlinear regression analysis. IC50 values thus obtained were converted to Ki using the equation of Ki=(IC50/(1+[L]/KD) where [L] represents PGE2 concentration (10 nM) and KD the dissociation constant for [^3H]PGE2 at human EP2 receptors (40 nM).
(§5) HEK-293 cells stably expressing the human or feline FP receptor, or EP1, EP2, or EP4 receptors were washed with TME buffer, scraped from the bottom of the flasks, and homogenized for 30 sec using a Brinkman PT 10/35 polytron. TME buffer was added to achieve a final 40 ml volume in the centrifuge tubes (the composition of TME is 100 mM TRIS base, 20 mM MgCl2, […]; 10N HCl is added to achieve a pH of 7.4).
(§6) The cell homogenate was centrifuged at 19000 r.p.m. for 20 min at 4° C. using a Beckman Ti-60 rotor. The resultant pellet was resuspended in TME buffer to give a final 1 mg/ml protein concentration, as determined by Biorad assay. Radioligand binding competition assays vs. [^3H-]17-phenyl PGF2α (5 nM) were performed in a 100 μl volume for 60 min. Binding reactions were started by adding plasma membrane fraction. The reaction was terminated by the addition of 4 ml ice-cold TRIS-HCl buffer and rapid filtration through glass fiber GF/B filters using a Brandel cell harvester. The filters were washed 3 times with ice-cold buffer and oven dried for one hour.
(§7) [^3H-] PGE2 (specific activity 180 Ci mmol) was used as the radioligand for EP receptors. [^3H] 17-phenyl PGF2α was employed for FP receptor binding studies. Binding studies employing EP1, EP2, EP4 and FP receptors were performed in duplicate in at least three separate experiments. A 200 μl assay volume was used. Incubations were for 60 min at 25° C. and were terminated by the addition of 4 ml of ice-cold 50 mM TRIS-HCl, followed by rapid filtration through Whatman GF/B filters and three additional 4 ml washes in a cell harvester (Brandel). Competition studies were performed using a final concentration of 5 nM [^3H]-PGE2, or 5 nM [^3H] 17-phenyl PGF2α and non-specific binding determined with 10^−5M of unlabeled PGE2, or 17-phenyl PGF2α, according to receptor subtype studied.

Series [6] has as its target T4, EP4 receptors (Homo sapiens, UniProt P35408).
T4 construct: expressed in transfected cells; host or cells: HEK-293
As to the kind of experiment: Radioligand binding [3H]PGE2, EP4 Ki. As to conditions: [3H]PGE2 competition, HEK-293 cells expressing EP4. On the procedure:
as §5, §6, §7

Series [7] deals with T5, hEP4/Gqs5 (Homo sapiens, UniProt P35408).
T5 construct: expressed in transfected cells; host or cells: HEK-293(EBNA)
As to the kind of experiment: FLIPR calcium signal, EP4. In kind it is cell-based. As to conditions: HEK-293(EBNA) cells. On the procedure:
as §1, §2, §3, §4

The target in series [8] is T6, hDP/Gqs5 (Homo sapiens, UniProt Q13258).
T6 construct: expressed in transfected cells; host or cells: HEK-293(EBNA)
T6 sequence (Q13258 1-359): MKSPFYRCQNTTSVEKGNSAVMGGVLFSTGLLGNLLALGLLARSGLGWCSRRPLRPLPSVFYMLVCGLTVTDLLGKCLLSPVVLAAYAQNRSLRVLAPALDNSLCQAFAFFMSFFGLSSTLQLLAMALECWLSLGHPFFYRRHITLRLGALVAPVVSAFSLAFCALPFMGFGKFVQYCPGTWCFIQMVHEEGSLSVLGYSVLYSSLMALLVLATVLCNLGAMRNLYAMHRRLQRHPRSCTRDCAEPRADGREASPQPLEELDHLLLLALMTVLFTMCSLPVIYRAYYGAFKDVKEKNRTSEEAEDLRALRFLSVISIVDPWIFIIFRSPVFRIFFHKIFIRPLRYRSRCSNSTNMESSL
Description: FLIPR calcium signal, hDP. As to conditions: read-out: Other Receptors (EC50 in nM) hDP. In kind it is cell-based. Here is the method: as §1, §2, §3, §4

[9] abbreviates: 0.001%, once daily for 5 days, at 50 h.

As a reminder, the EC50 is the concentration that produces a half-maximal response. One may read the Ki as the dissociation constant of the complex between target and ligand, obtained from inhibition or displacement.

T1 sequence (P43116 whole entry): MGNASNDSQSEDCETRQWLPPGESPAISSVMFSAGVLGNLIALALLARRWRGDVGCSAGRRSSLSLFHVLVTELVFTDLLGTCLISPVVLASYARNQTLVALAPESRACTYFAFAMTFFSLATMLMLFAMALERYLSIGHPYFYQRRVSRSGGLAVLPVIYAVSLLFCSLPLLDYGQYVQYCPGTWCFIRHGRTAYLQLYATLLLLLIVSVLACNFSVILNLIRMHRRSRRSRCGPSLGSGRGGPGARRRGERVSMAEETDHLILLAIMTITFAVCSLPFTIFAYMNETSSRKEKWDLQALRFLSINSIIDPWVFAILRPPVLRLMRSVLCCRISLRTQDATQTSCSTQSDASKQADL
T3 sequence (P43116 whole entry): as above
T5 sequence (P35408 whole entry): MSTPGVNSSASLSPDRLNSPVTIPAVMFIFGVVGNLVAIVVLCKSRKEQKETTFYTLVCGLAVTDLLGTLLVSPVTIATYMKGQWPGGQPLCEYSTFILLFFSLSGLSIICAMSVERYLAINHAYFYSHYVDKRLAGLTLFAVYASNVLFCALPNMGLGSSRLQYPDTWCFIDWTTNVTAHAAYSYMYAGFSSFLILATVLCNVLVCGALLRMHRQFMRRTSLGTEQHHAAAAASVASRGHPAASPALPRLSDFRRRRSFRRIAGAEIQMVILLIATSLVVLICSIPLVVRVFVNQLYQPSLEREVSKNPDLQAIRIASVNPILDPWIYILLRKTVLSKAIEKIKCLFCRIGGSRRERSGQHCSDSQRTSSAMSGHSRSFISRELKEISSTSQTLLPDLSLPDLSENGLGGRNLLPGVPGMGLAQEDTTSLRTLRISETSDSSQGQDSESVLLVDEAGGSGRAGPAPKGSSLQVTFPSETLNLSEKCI
T4 sequence (P35408 whole entry): as above

In the case of `O=C(O)c1ccc(CCC[C@@H]2[C@@H](CCc3cc(Cl)cc(Cl)c3)[C@H](O)C[C@H]2Cl)s1` [11a, 5-(3-((1R,2R,3R,5R)-5-chloro-2-(3,5-dichlorophenethyl)-3-hydroxycyclopentyl)propyl)thiophene-2-carboxylic acid], the “maximum ocular surface hyperemia (OSH) score” value in series [1] (0.0001%, once daily for 5 days, at 74 h) came out at 0.8; in series [1] (0.0005%, once daily for 5 days, at 50 h), 1.75; in series [1] (setting [9]), 1.8; in series [1] (0.01%, once daily for 5 days, at 26 h), 2.5. The EC50 in series [2] is 0.09 nM; in series [3] it was > 10000 nM; in series [4] it was 18 nM; in series [7], > 10000 nM. Further, the Ki stood at 0.2 nM in series [5] and 616 nM in series [6].

For the compound `O=C(O)c1ccc(CCC[C@@H]2[C@@H](CCc3cc(Cl)cc(CO)c3)[C@H](O)C[C@H]2Cl)s1` [11c, 5-(3-((1R,2R,3R,5R)-5-chloro-2-(3-chloro-5-(hydroxymethyl)phenethyl)-3-hydroxycyclopentyl)propyl)thiophene-2-carboxylic acid], in series [1] (setting [9]), the “maximum ocular surface hyperemia (OSH) score” value worked out at 0.8. Besides, the 50% effective concentration (EC50) is 0.08 nM in series [2], 86 nM in series [4], > 10000 nM in series [7] and 2940 nM in series [8]. The results for the Ki in series [5] and in series [6] were 1 nM and 437 nM, respectively.

For the compound `Cc1cc(C)cc(CC[C@@H]2[C@@H](CCCc3ccc(C(=O)O)s3)[C@H](Cl)C[C@H]2O)c1` [11e, 5-(3-((1R,2R,3R,5R)-5-chloro-2-(3,5-dimethylphenethyl)-3-hydroxycyclopentyl)propyl)thiophene-2-carboxylic acid], the EC50 in series [2] is 0.4 nM; in series [4], 287 nM; in series [7] it was > 10000 nM; in series [8], 15300 nM. For the same compound, the Ki in series [5] is 3 nM; in series [6], 966 nM.

In the case of `O=C(O)c1ccc(CCC[C@@H]2[C@@H](CCc3cc(Cl)nc(Cl)c3)[C@H](O)C[C@H]2Cl)s1` [11b, 5-(3-((1R,2R,3R,5R)-5-chloro-2-(2-(2,6-dichloropyridin-4-yl)ethyl)-3-hydroxycyclopentyl)propyl)-thiophene-2-carboxylic acid], in series [1] (0.001%, once daily for 4 days, at 74 h), the “maximum ocular surface hyperemia (OSH) score” value is reported as 1.9. Further, the EC50 in series [2] was 0.05 nM; in series [4] it was 13 nM; in series [7], > 10000 nM. In addition, the figures for the Ki in series [5] and in series [6] were 1 nM and 582 nM, respectively.

Regarding `CC(C)OC(=O)c1ccc(CCC[C@@H]2[C@@H](CCc3cc(Cl)cc(CO)c3)[C@H](O)C[C@H]2Cl)s1` [compound 18, Isopropyl 5-(3-((1R,2R,3R,5R)-5-chloro-2-(3-chloro-5-(hydroxymethyl)phenethyl)-3-hydroxycyclopentyl)propyl)thiophene-2-carboxylate], the “maximum ocular surface hyperemia (OSH) score” value in series [1] (0.001%, once daily for 5 days, at 26 h) is 0.9.

With `OCc1ccc(CCC[C@@H]2[C@@H](CCc3cc(Cl)cc(Cl)c3)[C@H](O)C[C@H]2Cl)s1` [compound 13, (1R,2R,3R,4R)-4-chloro-2-(3,5-dichlorophenethyl)-3-(3-(5-(hydroxymethyl)thiophen-2-yl)propyl)cyclopentanol], the EC50 was found to be 284 nM in series [2] and 10200 nM in series [4]. Further, the Ki was 502 nM in series [5] and > 10000 nM in series [6].

These data come from patent US7592366B2, “Therapeutic compounds” (Allergan, Inc., priority 2006, dated 2009).
